# From patent US5342942A, “Pyrazoloquinazolone derivatives as neurotrophic agents” (Warner-Lambert Company, priority 1993, dated 1994)
# Counter-ions that a name gives are not always drawn.
# Assays:
# [1] = target: T1, extracellular domain of the p75 receptor (Homo sapiens); assay: inhibition of ^125 I-NGF binding to the extracellular domain of the p75 receptor (truncated form, residues 1-222, microtiter plate); conditions: 2 nM ^125 I-NGF, 2 hours at room temperature; read-out: Concentration (IC50, nM): inhibition of ^125 I-NGF binding to the extracellular domain of the p75 receptor
# T1 construct: purchased Chiron Corporation, Emeryville, Calif; (originally); also commercially available from Austral Biologicals, Inc. (San Diego, Calif.)
# Protocol: (§1) Assays of novel compounds are performed by measuring the compounds' ability to inhibit the binding of NGF to the NGF p75 receptor, using a truncated form (Residues 1-222, molecular weight=56 KDa) of the p75 receptor, originally obtained from Chiron Corporation, Emeryville, Calif., but also commercially available from Austral Biologicals, Inc. (San Diego, Calif.), on plastic 96-well microtiter plates (Immulon 11 Dynatech). The wells are coated with 50 μL/well of 20 μg/mL streptavidin in a […] (DPBS). The plates are then incubated at room temperature for 6 hours. The excess streptavidin is then poured out, the wells are washed with a 0.1% solution of bovine serum albumin (BSA) in DPBS. To each well is then added 50 μg/mL of a DPBS solution containing the truncated p75 receptor, which has previously been reacted with biotin by standard procedures. The plates are then incubated at room temperature for 2 hours and washed with 0.2% BSA/DPBS. To each well is added 98 μL of 2 nM ^125 I-NGF, followed by 2 μL/well of a concentration of test compound that is 50 times greater than the desired final test concentration. The plates are incubated for 2 hours at room temperature. The assay is read as the IC50, the concentration of compound that blocks 50% of the binding of ^125 I-NGF to the p75 receptor. […]
# full length p75 receptor = assay: inhibition of ^125 I-NGF binding to full length p75 receptor expressed in CHO cells that lack trk (FIG. 2); conditions: CHO cells that lack trk expression
# Source text: (§2) In principle, a compound may inhibit the binding of NGF to the p75 receptor by interacting with either protein. The compounds of the present invention are studied further as exemplified here with the compound of Example 3.
# [2] = target: T2, extracellular domain of the p75 receptor (Homo sapiens, UniProt P01138); assay: inhibition of ^125 I-NGF binding to the extracellular domain of the p75 receptor (truncated form, residues 1-222, microtiter plate); conditions: FIG. 1, result in words
# T2 construct: purchased Chiron Corporation, Emeryville, Calif; (originally); also commercially available from Austral Biologicals, Inc. (San Diego, Calif.)
# Protocol: as §1
# [3] = tested on: PC12 cells that express both p75 and trk; assay: inhibition of ^125 I-NGF binding in PC12 cells that express both p75 and trk (FIG. 3); conditions: p75 about 80% and trk about 20% of total NGF receptors
# Source text: as §2
# p75 = assay: inhibition of crosslinking of ^125 I-NGF to p75 (FIG. 4); assay type: binding
# Source text: as §2
# NGF receptors = assay: direct binding to NGF receptors with radioiodinated derivative of Compound 3 (FIG. 5); conditions: utilizing a radioiodinated derivative of Compound 3 (corresponding to Example 3j)
# Source text: as §2
# NGF = assay: interaction with NGF bound to a sepharose support (FIG. 6); assay type: binding
# Source text: as §2
# T1 sequence (P01138 122-241): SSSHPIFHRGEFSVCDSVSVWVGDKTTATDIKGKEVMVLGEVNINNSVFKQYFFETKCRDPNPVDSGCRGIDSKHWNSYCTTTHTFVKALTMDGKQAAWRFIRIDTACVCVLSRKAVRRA
# T2 sequence (P01138 122-241): as above
SMILES,IC50 [1] [nM],also measured
"Cn1c2ccc(N)cc2c(=O)n2nc(C(=O)O)cc12 [Example 1, 7-Amino-4,9-dihydro-4-methyl-9-oxopyrazolo[5,1-b]-quinazoline-2-carboxylic acid]",1900,–
"Cn1c2ccc(NC(=O)c3ccccc3)cc2c(=O)n2nc(C(=O)O)cc12 [Example 3, 7-(Benzoylamino)-4,9-dihydro-4-methyl-9-oxopyrazolo-[5,1-b]quinazoline-2-carboxylic acid]",228,prevention of binding of ^125 I-NGF to full length p75 receptor (full length p75 receptor): completely prevents binding of ^125 I-NGF to full length p75 receptor; prevention of binding of ^125 I-NGF to the extracellular domain of p75 [2]: prevents the binding of ^125 I-NGF to the extracellular domain of p75; block of ^125 I-NGF binding in PC12 cells [3]: about 80%; inhibition of crosslinking of ^125 I-NGF to p75 (p75): can inhibit the crosslinking of ^125 I-NGF to p75; direct binding to NGF receptors (NGF receptors): does not bind to NGF receptors directly; specific interaction with NGF (NGF): specific interaction between Compound 3 and NGF
"Cn1c2ccc(NC(=O)c3cccs3)cc2c(=O)n2nc(C(=O)O)cc12 [Example 3a, 4,9-Dihydro-4-methyl-9-oxo-7-[(2-thienylcarbonyl)amino]pyrazolo[5,1-b]quinazoline-2-carboxylic acid]",690,–
"Cc1ccc(C(=O)Nc2ccc3c(c2)c(=O)n2nc(C(=O)O)cc2n3C)cc1 [Example 3b, 4,9-Dihydro-4-methyl-9-oxo-7-[(4-methylbenzoyl)amino]-pyrazolo[5,1-b]quinazoline-2-carboxylic acid]",180,–
"COc1ccc(C(=O)Nc2ccc3c(c2)c(=O)n2nc(C(=O)O)cc2n3C)cc1 [Example 3c, 4,9-Dihydro-4-methyl-9-oxo-7-[(4-methoxybenzoyl)amino]-pyrazolo[5,1-b]quinazoline-2-carboxylic acid]",10000,–
"Cn1c2ccc(NC(=O)c3ccc(Cl)cc3)cc2c(=O)n2nc(C(=O)O)cc12 [Example 3d, 7-[(4-Chlorobenzoyl)amino]-4,9-dihydro-4-methyl-9-oxopyrazolo [5,1-b]quinazoline-2-carboxylic acid]",250,–
"Cn1c2ccc(NC(=O)Cc3ccccc3)cc2c(=O)n2nc(C(=O)O)cc12 [Example 3e, 4,9-Dihydro-4-methyl-9-oxo-7-[(phenylacetyl)aminol]-pyrazolo[5,1-b]quinazoline-2-carboxylic acid]",568,–
"Cn1c2ccc(NC(=O)c3ccc(Cl)c(Cl)c3)cc2c(=O)n2nc(C(=O)O)cc12 [Example 3f, 7-[(3,4-Dichlorobenzoyl)amino]-4,9-dihydro-4-methyl-9-oxopyrazolo[5,1-b]quinazoline-2-carboxylic acid]",844,–
Cn1c2ccc(NC(=O)Nc3ccccc3)cc2c(=O)n2nc(C(=O)O)cc12 [Example 3g],3880,–
"Cn1c2ccc(NC(=O)CCc3ccccc3)cc2c(=O)n2nc(C(=O)O)cc12 [Example 3h, 4,9-Dihydro-4-methyl-9-oxo-7[(1-oxo-3-phenylpropyl) -amino]pyrazolo [5,1-b]quinazoline-2-carboxylic acid]",1710,–
Cn1c2ccc(NC(=O)c3ccc4ccccc4c3)cc2c(=O)n2nc(C(=O)O)cc12 [Example 3i],431,–
"Cn1c2ccc(NC(=O)c3ccc(I)cc3)cc2c(=O)n2nc(C(=O)O)cc12 [Example 3j, 4,9-Dihydro-7-[(4-iodobenzoyl)amino]-4-methyl-9-oxopyrazolo[5,1-b]quinazoline-2-carboxylic acid]",472,–
"Cn1c2ccc(NC(=O)c3ccc([N+](=O)[O-])cc3)cc2c(=O)n2nc(C(=O)O)cc12 [Example 3k, 4,9-Dihydro-4-methyl-7-[(4-nitrobenzoyl)amino]-9-oxopyrazolo[5,1-b]quinazoline-2-carboxylic acid]",229,–
"Cn1c2ccc(NC(=O)c3ccc(C(C)(C)C)cc3)cc2c(=O)n2nc(C(=O)O)cc12 [Example 3l, 7-[(4-tert-Butylbenzoyl)amino]-4,9-dihydro-4-methyl-9-oxopyrazolo[5,1-b]quinazoline-2-carboxylic acid]",862,–
"Cn1c2ccc(NC(=O)C34CC5CC(CC(C5)C3)C4)cc2c(=O)n2nc(C(=O)O)cc12 [Example 3m, 4,9-Dihydro-4-methyl-9-oxo-7-[(tricyclo[3.3.1.1^3,7]-dec-1-ylcarbonyl)amino]pyrazolo[5,1-b]quinazoline-2-carboxylic acid]",2230,–
"Cn1c2ccc(NC(=O)c3ccc(C(F)(F)F)cc3)cc2c(=O)n2nc(C(=O)O)cc12 [Example 3n, 4,9-Dihydro-4-methyl-9-oxo-7-[[(4-trifluoromethyl)benzoyl]amino]pyrazolo [5,1-b]quinazoline-2-carboxylic acid]",2570,–

SMILES,IC50 [1] [nM],also measured
"Cc1cccc(C(=O)Nc2ccc3c(c2)c(=O)n2nc(C(=O)O)cc2n3C)c1 [Example 3p, 4,9-Dihydro-4-methyl-7-[(3-methylbenzoyl)amino]-9-oxopyrazolo[5,1-b]quinazoline-2-carboxylic acid]",748,–
"Cn1c2ccc(NC(=O)c3ccc(-c4ccccc4)cc3)cc2c(=O)n2nc(C(=O)O)cc12 [Example 3q, 7-[[(1,1'-Biphenyl)-4-ylcarbonyl]amino]-4,9-dihydro-4-methyl-9-oxopyrazolo[5,1-b]quinazoline-2-carboxylic acid]",222,–
"Cc1ccccc1C(=O)Nc1ccc2c(c1)c(=O)n1nc(C(=O)O)cc1n2C [Example 3r, 4,9-Dihydro-4-methyl-7-[(2-methylbenzoyl)amino]-9-oxopyrazolo[5,1-b]quinazoline-2-carboxylic acid]",> 10000,–
"Cn1c2ccc(NC(=O)c3ccc(F)cc3)cc2c(=O)n2nc(C(=O)O)cc12 [Example 3s, 4,9-Dihydro-7-[(4-fluorobenzoyl)amino]-4-methyl-9-oxopyrazolo[5,1-b]quinazoline-2-carboxylic acid]",266,–
Cn1c2ccc(NC(=O)c3ccc(C(=O)O)cc3)cc2c(=O)n2nc(C(=O)O)cc12 [Example 3t],166,–
"Cc1ccc(C(=O)Nc2ccc3c(c2)c(=O)n2nc(C(=O)O)cc2n3C)cc1I [Example 3u, 4,9-Dihydro-7-[(3-iodo-4-methylbenzoyl)amino]-4-methyl-9-oxopyrazolo[5,1-b]quinazoline-2-carboxylic acid]",~200,–
"Cn1c2ccc(NC(=O)CC(=O)O)cc2c(=O)n2nc(C(=O)O)cc12 [Example 3v, 7-[(Carboxyacetyl)amino]-4,9-dihydro-4-methyl-9-oxopyrazolo[5,1-b]quinazoline-2-carboxylic acid]",1150,–
"Cn1c2ccc(NC(=O)CCC(=O)O)cc2c(=O)n2nc(C(=O)O)cc12 [Example 3w, 7-[(3-Carboxy-1-oxopropyl)amino]-4,9-dihydro-4-methyl-9-oxopyrazolo[5,1-b]qruinazoline-2-carboxylic acid]",116,–
"Cn1c2ccc(NC(=O)CCCC(=O)O)cc2c(=O)n2nc(C(=O)O)cc12 [Example 3x, 7-[(4-Carboxy-1-oxobutyl)amino]-4,9-dihydro-4-methyl-9-oxopyrazolo[5,1-b]quinazoline-2-carboxylic acid]",36,–
"Cc1ccc(C(=O)Nc2ccc3c(c2)c(=O)n2nc(C(=O)O)cc2n3C)cc1 [Example 7, 4,9-Dihydro-4-methyl-9-oxo-7-[(methylbenzoyl)amino]-pyrazolo[5,1-b]quinazoline-2-carboxylic acid; triethanolamine salt (1:1)]",1160,–
O=C(O)c1ccc2c(=O)n3nc(C(=O)O)cc3[nH]c2c1 [H H CO2 H],1100,–
Cc1ccc2[nH]c3cc(C(=O)O)nn3c(=O)c2c1 [H Me H],12900,–
Nc1ccc2[nH]c3cc(C(=O)O)nn3c(=O)c2c1 [H NH2 H],338,–
CC(=O)Nc1ccc2c(c1)c(=O)n1nc(C(=O)O)cc1n2C [Me CH3 CONH H],1700,–
Cn1c2ccccc2c(=O)n2nc(C(=O)O)cc12 [Me H H],30800,–
Cc1ccc2c(c1)c(=O)n1nc(C(=O)O)cc1n2C [Me Me H],9700,–
